The values below come from US20060217308A1, “Compositions for the treatment of tumor pathologies, comprising internalin B (ln1B) of Listeria monocytogene protein or a fragment thereof” (priority 2005, published 2006).

Experiment [1] has as its system Met. The experiment is described as follows: Effect of proteasome and lysosome inhibitors on In1B-dependent degradation of Met. In kind it is cell-based, human. The settings on record: HeLa cells pre-treated with inhibitor before addition of In1B; anti-Met immunoblot. As to the method: (A) Hela cells were treated (+) with […] epoximycin, […] clasto-lactacystin-β-lactone (lactone), 20 mM ammonium chloride, or 5 μM bafilomycin A1 (Baf-A1) for 90 minutes before addition of In1B. Cell extracts were loaded in a SDS-PAGE gel followed by immunoblot with anti-Met antibody. […] (B) Surface exposed proteins of Hela cells were biotinylated (Biot +) before addition of In1B. In1B was added for two minutes to allow internalization of Met, then cells were washed and biotin was removed (see methods and text) from the surface. Samples were precipitated with neutravidin agarose and blotted against Met.
Mono-ubiquitination is the signal that induces endocytosis of RTKs after ligand binding and usually drives cargo proteins to lysosomal degradation (6, 17, 34). To study whether In1B-dependent degradation of Met is a proteasomal or a lysosomal event, HeLa cells were treated with clasto-p-lactacystin lactone or epoximycin, two inhibitors of proteasome degradation, and ammonium chloride or bafilomycin A1, two inhibitors of lysosome degradation, […] before the addition of In1B. Cellular extracts were then immunoblotted using anti Met antibodies (FIG. 4).
(In general: A western blot detects proteins with antibodies after separation by electrophoresis.)

In experiment [2] the test system is poly-ubiquitinated proteins. The experiment is described as follows: FK1 functionality test: poly-ubiquitin immunoblot of HeLa cells treated with proteasome inhibitors. In kind it is cell-based, human. As to conditions: 60 minutes treatment, versus non-treated. As to the method: (A) In1B was added (+) to HeLa cells. Lysates were immunoprecipitated using C12 rabbit polyclonal anti-Met antibody and blotted against Met (DL21 mAb). The same membrane was stripped and blotted against ubiquitin using FK1, a mAb that recognizes poly-ubiquitinated proteins, or P4D1, a mAb that recognizes both poly- and mono-ubiquitinated proteins. (B) Total cell extracts from Hela cells treated with […] epoximycin (lane 2) or […] clasto-lactacystin-β-lactone (lane 3) for 60 minutes, or non-treated cells (lane 1) were blotted against poly-ubiquitin (FK1) or actin. (C) ubiquitin ladder was blotted with FK1 or P4D1. The number of ubiquitin modules is indicated on the right. The molecular weight of protein markers is shown in the left of the panels, in kDa. In D and E, Hela Cells were transfected with siRNA to knock down Cbl expression (RNAi), or with RNA control (Control). (D) Cellular Cbl and actin were detected by immunoblotting. […]
The rapid degradation of Met after In B contact is different from the HGF-dependent degradation, which has been reported to take two hours (19-21), indicating differences in the biochemistry of the process. […] Samples from HeLa cells treated with In1B (5 nM) were immunoprecipitated using an anti-Met antibody, and then Met-immunoprecipitates were analyzed with an anti Met mAb (FIG. 3A1), FK1 (FIG. 3A2) or P4D1 (FIG. 3A3). […]

Experiment [3] has as its target Met (hepatocyte growth factor receptor), endogenous in human HeLa cells (human) (UniProt P08581). The experiment is described as follows: cell-based or functional assay.
The test system of experiment [4] is Met. The experiment is described as follows: Effect of cycloheximide on In1B-dependent degradation and de-novo synthesis of Met. In kind it is cell-based, human. As to conditions: HeLa cells pre-treated 90 minutes before In1B. How it is done:
FIG. 2 depicts the degradation and de-novo synthesis of Met. (A) HeLa cells were treated at the indicated times with 5 nM In1B and cellular extracts were blotted against Met. (B) Cells were treated as in A, but blotted at the same time with anti-Met antibody and Streptavidin. Stars indicate nonspecific bands recognized by streptavidin and the square indicates Met. (C) The experiment was performed as in A, but cells were pre-treated with […] of cycloheximide for 90 minutes before addition of In1B. (D) This experiment was performed as in A, but In1B was removed three minutes after it was added. Actin is shown as the loading control in A, C and D. The molecular mass of the markers is indicated in kDa.
In order to determine whether de-novo synthesis of Met occurred after In1B dependent-degradation, HeLa cells were pre-treated with cycloheximide, which inhibits protein synthesis, for 90 minutes before exposure to In1B.

Experiment [5] has as its target Met (Homo sapiens, UniProt P08581). As to conditions: comparison with In1B; cited from earlier work.

Met (hepatocyte growth factor receptor), endogenous in human HeLa cells (human), sequence (P08581 25-1390): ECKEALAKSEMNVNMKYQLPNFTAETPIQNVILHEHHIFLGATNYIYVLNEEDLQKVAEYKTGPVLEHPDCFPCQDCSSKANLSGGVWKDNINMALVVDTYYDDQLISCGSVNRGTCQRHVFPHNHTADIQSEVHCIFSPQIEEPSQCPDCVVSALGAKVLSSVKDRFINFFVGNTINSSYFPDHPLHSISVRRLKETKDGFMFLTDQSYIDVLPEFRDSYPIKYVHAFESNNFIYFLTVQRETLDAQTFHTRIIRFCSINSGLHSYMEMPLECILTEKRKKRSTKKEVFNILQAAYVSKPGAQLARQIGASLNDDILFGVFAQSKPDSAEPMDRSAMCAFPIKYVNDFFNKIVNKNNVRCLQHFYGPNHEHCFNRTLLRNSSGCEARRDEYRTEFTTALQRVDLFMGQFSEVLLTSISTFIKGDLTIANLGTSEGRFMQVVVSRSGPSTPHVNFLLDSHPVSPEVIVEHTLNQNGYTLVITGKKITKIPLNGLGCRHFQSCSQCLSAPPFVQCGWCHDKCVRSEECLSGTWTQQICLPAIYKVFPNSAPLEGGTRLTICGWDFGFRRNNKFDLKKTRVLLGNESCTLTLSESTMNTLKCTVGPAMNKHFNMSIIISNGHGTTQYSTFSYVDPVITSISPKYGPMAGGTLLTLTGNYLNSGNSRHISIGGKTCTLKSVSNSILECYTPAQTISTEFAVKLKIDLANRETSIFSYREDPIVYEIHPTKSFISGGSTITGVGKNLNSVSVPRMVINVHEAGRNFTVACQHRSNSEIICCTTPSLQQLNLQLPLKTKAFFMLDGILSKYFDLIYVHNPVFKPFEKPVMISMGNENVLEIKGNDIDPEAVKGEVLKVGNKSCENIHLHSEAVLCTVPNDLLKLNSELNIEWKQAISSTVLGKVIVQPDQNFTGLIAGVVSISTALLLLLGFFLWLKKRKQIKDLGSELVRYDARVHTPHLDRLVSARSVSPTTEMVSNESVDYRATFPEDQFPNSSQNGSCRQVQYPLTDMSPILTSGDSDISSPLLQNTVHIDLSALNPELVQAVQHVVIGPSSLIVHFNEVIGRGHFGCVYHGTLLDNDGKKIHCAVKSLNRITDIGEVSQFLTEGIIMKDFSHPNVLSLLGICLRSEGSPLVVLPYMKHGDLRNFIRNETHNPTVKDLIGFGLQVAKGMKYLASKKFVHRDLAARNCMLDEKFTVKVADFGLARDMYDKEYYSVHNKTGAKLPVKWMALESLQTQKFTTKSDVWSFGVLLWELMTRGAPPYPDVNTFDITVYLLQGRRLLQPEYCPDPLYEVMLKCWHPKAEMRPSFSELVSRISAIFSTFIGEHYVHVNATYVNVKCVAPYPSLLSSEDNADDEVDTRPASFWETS
Met (Homo sapiens, UniProt P08581), sequence (P08581 25-1390): as above

As for `Cl.N` [ammonium chloride], the “effect of inhibitor on In1B-dependent degradation of Met” value (“effect of inhibitor” below) in the experiment on Met [1] is reported as “significantly protected Met from degradation”.

In the case of `CC[C@H](C)[C@H](NC(=O)[C@H]([C@@H](C)CC)N(C)C(C)=O)C(=O)N[C@H](C(=O)N[C@@H](CC(C)C)C(=O)[C@@]1(C)CO1)[C@@H](C)O` [epoximycin], the “effect of inhibitor” value with Met [1] is listed as “did not inhibit”. Besides, the “poly-ubiquitin (FK1) signal in cells treated with proteasome inhibitor” value in experiment [2] was “stronger signals”.

On to “In1B (internalin B) of Listeria monocytogenes, purified soluble protein (ligand)”, for which, in experiment [3], the Met phosphorylation (blot against phospho-tyrosine) was 2 min, the kinetics of In1B-dependent ubiquitination of Met is 2 min and the minimal amount of In1B necessary to trigger Met ubiquitination was determined as 1.75 nM.

As to `C[C@@H]1C[C@@H]([C@H](O)CC2CC(=O)NC(=O)C2)C(=O)[C@@H](C)C1` [cycloheximide], in the experiment on Met [4], the “effect of cycloheximide on In1B-dependent degradation of Met” value is listed as “did not prevent” and the “effect of cycloheximide on de-novo synthesis of Met after In1B” value is given as “strongly hampered”.

For the molecule “HGF: Met ligand (hepatocyte growth factor)”, in the experiment with Met [5], the “time needed for a similar rate of Met degradation after activation with HGF” value was “two to five and two”.

With `CC(C)[C@H](O)[C@@]12NC(=O)[C@H](C)[C@@H]1OC2=O` [clasto-lactacystin-β-lactone], the “effect of inhibitor” value in the experiment on Met [1] was “did not inhibit”. Further, the “poly-ubiquitin (FK1) signal in cells treated with proteasome inhibitor” value in experiment [2] was “stronger signals”.

Take `CO/C1=C\C(C)=C\[C@@H](C)[C@@H](O)[C@@H](C)C/C(C)=C/C=C/[C@H](OC)[C@@H]([C@@H](C)[C@@H](O)[C@H](C)[C@@]2(O)C[C@@H](O)[C@H](C)[C@@H](C(C)C)O2)OC1=O` [bafilomycin A1]: in the experiment on Met [1], the “effect of inhibitor” value is given as “significantly protected Met from degradation”.
